Measurements taken from PubChem BioAssay (NCI).
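Test compounds were applied to cells in 96-well plates for 48 hours at 5 doses. At the GI50, growth is halved. TGI: total growth inhibition.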

What was measured:
Assay in all cases: inhibition of tumour cell growth, NCI panel, 48 h
SK-OV-3 ovarian = test system: SK-OV-3 ovarian
HCC-2998 colon = test system: HCC-2998 colon
MOLT-4 leukemia = test system: MOLT-4 leukemia
LOX IMVI melanoma = test system: LOX IMVI melanoma
SNB-19 CNS = test system: SNB-19 CNS
SW-620 colon = test system: SW-620 colon
RXF 393 renal = test system: RXF 393 renal
RPMI-8226 leukemia = test system: RPMI-8226 leukemia
HOP-62 NSCLC = test system: HOP-62 NSCLC
T-47D breast = test system: T-47D breast

SMILES	TGI (SK-OV-3 ovarian) [µM]	TGI (HCC-2998 colon) [µM]	TGI (MOLT-4 leukemia) [µM]	TGI (LOX IMVI melanoma) [µM]	TGI (SNB-19 CNS) [µM]	TGI (SW-620 colon) [µM]	TGI (RXF 393 renal) [µM]	TGI (RPMI-8226 leukemia) [µM]	TGI (HOP-62 NSCLC) [µM]	GI50 (SK-OV-3 ovarian) [µM]	GI50 (RPMI-8226 leukemia) [µM]	GI50 (HCC-2998 colon) [µM]	GI50 (MOLT-4 leukemia) [µM]	GI50 (LOX IMVI melanoma) [µM]	GI50 (SNB-19 CNS) [µM]	GI50 (HOP-62 NSCLC) [µM]	GI50 (SW-620 colon) [µM]	TGI (T-47D breast) [µM]
COc1ccc(NC(=O)C(=O)c2c(O)c3ccc(O)cc3oc2=O)c([N+](=O)[O-])c1	> 100	> 100	> 100	> 100	> 100	> 100	> 100	–	–	–	–	–	–	–	–	–	–	–
CCC(C)CCOC(=O)c1ccc(N=Cc2ccc(C=Nc3ccc(C(=O)OCCC(C)CC)cc3)cc2)cc1 (centres undefined)	> 100	> 100	> 100	> 100	> 100	> 100	> 100	> 100	> 100	–	–	–	–	–	–	–	–	–
Cc1c(Cl)cccc1NC(=O)C(=O)C(C(=O)c1ccccc1-c1ccccc1)C1OC(=O)c2ccccc21 (centres undefined)	> 100	31.2	57.8	39.5	–	49	27.1	59.1	35.5	–	–	–	–	–	–	–	–	–
O=C1NC(Cc2ccc(O)cc2)C(=O)N2CCCC12 (centres undefined)	> 100	> 100	> 100	> 100	> 100	> 100	> 100	> 100	> 100	–	–	–	–	–	–	–	–	–
COC(=O)C1CCc2c1c(=O)n1c([nH]c3ccccc31)c2C#N (centres undefined)	> 100	> 100	–	> 100	> 100	> 100	> 100	> 100	> 100	–	–	–	–	–	–	–	–	–
CN1c2ccccc2N(C(=O)c2ccc([N+](=O)[O-])cc2)C(CC(=O)O)c2cccn21 (centres undefined)	> 100	> 100	> 100	> 100	> 100	> 100	> 100	> 100	> 100	–	–	–	–	–	–	–	–	–
N.N.N.N.N.[Co+3].[I-].[N-]=[N+]=[N-]	> 100	> 100	> 100	> 100	> 100	> 100	–	> 100	> 100	> 100	35.5	> 100	5.41	> 100	> 100	> 100	> 100	–
COc1ccc(/C=C(/C#N)C(N)=O)c(OC)c1	> 100	–	> 100	> 100	> 100	> 100	> 100	> 100	> 100	–	–	–	–	–	–	–	–	> 100
CC(C)(Br)C(=O)N1CCN(C(c2ccccc2)c2ccccc2)CC1	> 100	> 100	> 100	> 100	> 100	> 100	81.2	–	> 100	–	–	–	–	–	–	–	–	–
Cc1ccc(S(=O)(=O)OCCn2cnc3nc(NC(=O)c4ccccc4)[nH]c(=O)c32)cc1	> 100	–	–	> 100	> 100	> 100	> 100	> 100	> 100	–	–	–	–	–	–	–	–	–
CCCCCN(CCCCC)C(=O)[C@@H](CCC(=O)O)NC(=O)c1cc2ccccc2[nH]1	> 100	> 100	46.6	> 100	> 100	> 100	25.6	35.4	87.7	–	–	–	–	–	–	–	–	–
